Assay results as given in patent US8679461B2, “Use of hesperetin for enhancing the sweet taste” (Symrise AG, priority 2005, dated 2014).
Where “and” joins values, the source holds several entries; their conditions need not be identical. Equal entries are not always repeated.

Columns and labels:
[1] = test system: sweet impression of a 5% by weight sucrose-containing solution; assay: Enhancing the sweet impression of a sugar solution, rating by a group of experts (Application Example 1); assay type: in vivo; conditions: for total number of tasters against the number of tasters who found the test solution sweeter / % Enhancement of the sweet impression: 5% sucrose + 100 ppm substance against 5% sucrose solution; for % Enhancement of the sweet impression: calculated from mean ratings; for Sweet impression (1-10) b) with: 5% sucrose + 100 ppm substance, rating 0 [not sweet] to 10 [extremely sweet], mean ± standard deviation
Experimental: In order to quantify the enhancement of a sweet impression owing to the addition of hesperetin, the respective sweetness of a 5% by weight sucrose-containing solution and of samples which contained 5% sucrose and 100 ppm hesperetin (source: Sigma-Aldrich, Order.-No. H 4125, CA-No. 41001-90-5) or a quantity of comparative hydroxyflavanones naringenin, eriodictyol, homoeriodictyol or eriodictyol-7-methylether (cf. US 2002 188,019) was determined by a group of experts (rating0 [not sweet] to 10 [extremely sweet]). Evaluation took place as a calculation of the enhancement (in %) of the sweet impression from the mean values of the assessments of the sucrose solution or the sucrose and compound 2-containing solution.

[2] = test system: sweet impression of sucrose-containing solutions; assay: Sweet impression of a sugar-reduced test solution, rating by a group of experts (Application Example 2); assay type: in vivo
Experimental: In order to quantify the retention of a sweet impression when replacing a sucrose content with a small quantity of hesperetin, the respective sweetness of (a) a 6% by weight sucrose-containing solution against a 5% by weight sucrose-containing solution and (b) a 6% by weight sucrose-containing solution against a solution which contained 5% sucrose and a quantity of hesperetin (source: Sigma-Aldrich, Order No. H 4125, CA-No. 41001-90-5) was determined by a group of experts (rating 0 [not sweet] to 10 [extremely sweet]). Evaluation took place as a calculation of the enhancement (in %) of the sweet impression from the mean values of the assessments of the 6% or 5% sucrose-containing solution or 5% sucrose and 100 ppm hesperetin-containing solution.

sweet taste = conditions: concentration of 200 ppm; cited from earlier work

O=C1C[C@@H](c2ccc(O)cc2)Oc2cc(O)cc(O)c21 [Naringenin]
total number of tasters against the number of tasters who found the test solution sweeter [1]: 19/12 | % Enhancement of the sweet impression [1]: +7.5% | Sweet impression (1-10) b) with [1]: 6.0 ± 1.7

O=C1C[C@@H](c2ccc(O)c(O)c2)Oc2cc(O)cc(O)c21 [Eriodictyol]
total number of tasters against the number of tasters who found the test solution sweeter [1]: 12/2 | % Enhancement of the sweet impression [1]: −16.7% | Sweet impression (1-10) b) with [1]: 5.4 ± 1.2

COc1cc(O)c2c(c1)OC(c1ccc(O)c(O)c1)CC2=O (stereo not drawn) [Eriodictyol-7-methylether]
total number of tasters against the number of tasters who found the test solution sweeter [1]: 18/13 | % Enhancement of the sweet impression [1]: +15.9% | Sweet impression (1-10) b) with [1]: 5.7 ± 1.9

COc1ccc(C2CC(=O)c3c(O)cc(O)cc3O2)cc1O (stereo not drawn) [Hesperetin, 4′-methoxy-3′,5,7-trihydroxyflavanone]
total number of tasters against the number of tasters who found the test solution sweeter ([2]; test (b): 5% sucrose + 100 ppm hesperetin against 6% sucrose): 15/12 | % Enhancement of the sweet impression ([2]; test (b): 5% sucrose + 100 ppm hesperetin against 6% sucrose solution): +21% | Sweet impression (1-10) 5% sucrose + 100 ppm hesperetin ([2]; test (b), mean ± standard deviation): 7.9 ± 1.5 | inherent taste (in words) (sweet taste): very weak sweet taste | total number of tasters against the number of tasters who found the test solution sweeter [1]: 16/14 | % Enhancement of the sweet impression [1]: +41% | Sweet impression (1-10) b) with [1]: 7.1 ± 2.4 | sweet-enhancing effect (in words) ([1]; in contrast to naringenin, homoeriodictyol, eriodictyol and eriodictyol-7-methylether, cf. Example 1): clear and significant sweet-enhancing effect

OC[C@H]1O[C@@](CO)(O[C@H]2O[C@H](CO)[C@@H](O)[C@H](O)[C@H]2O)[C@@H](O)[C@@H]1O [sucrose]
Sweet impression (1-10) 5% sucrose ([2]; 5% by weight sucrose solution, test (a), mean ± standard deviation): 5.0 ± 1.6 | Sweet impression (1-10) 6% sucrose ([2]; 6% by weight sucrose solution, reference in tests (a) and (b), mean ± standard deviation): 6.5 ± 1.5 and 6.9 ± 1.6 | total number of tasters against the number of tasters who found the test solution sweeter ([2]; test (a): 5% sucrose against 6% sucrose): 15/0 | % Enhancement of the sweet impression ([2]; test (a): 5% sucrose solution against 6% sucrose solution): −30%

COc1cc([C@@H]2CC(=O)c3c(O)cc(O)cc3O2)ccc1O [Homoeriodictyol]
total number of tasters against the number of tasters who found the test solution sweeter [1]: 19/13 | % Enhancement of the sweet impression [1]: +6.4% | Sweet impression (1-10) b) with [1]: 6.1 ± 1.5
